Results taken from ChEMBL document CHEMBL4229569, “Structure-Based Design of 1-Heteroaryl-1,3-propanediamine Derivatives as a Novel Series of CC-Chemokine Receptor 5 Antagonists” (J Med Chem, 2018).

Tests used:
[1] = target: C-C chemokine receptor type 5 (Homo sapiens, UniProt P51681); assay: Antagonist activity at CCR5 (unknown origin) expressed in HEK293 cells co-expressing Galpha16 assessed as inhibition of RANTES-induced calcium flux preincubated for 10 mins followed by RANTES addition by fluo-4AM-based fluorescence assay; format: functional, cell-based
[2] = Cytotoxicity against human TZM-bl cells after 48 hrs by MTT assay; format: cell-based
in vitro = conditions: human, TZM-bl cells
Description: Therapeutic index, ratio of CC50 for human TZM-bl cells to EC50 for CCR5-dependent HIV1 SF162 infected in human TZM-bl cells

[3] = system: Human immunodeficiency virus 1; assay: microbe, parasite or virus in culture; conditions: Human immunodeficiency virus 1, SF162, TZM-bl, 48 h
Description: Antiviral activity against CCR5-dependent HIV1 SF162 infected in human TZM-bl cells assessed as reduction in virus infection measured after 48 hrs post infection by luciferase reporter gene assay

C-C chemokine receptor type 5, sequence (P51681 whole entry): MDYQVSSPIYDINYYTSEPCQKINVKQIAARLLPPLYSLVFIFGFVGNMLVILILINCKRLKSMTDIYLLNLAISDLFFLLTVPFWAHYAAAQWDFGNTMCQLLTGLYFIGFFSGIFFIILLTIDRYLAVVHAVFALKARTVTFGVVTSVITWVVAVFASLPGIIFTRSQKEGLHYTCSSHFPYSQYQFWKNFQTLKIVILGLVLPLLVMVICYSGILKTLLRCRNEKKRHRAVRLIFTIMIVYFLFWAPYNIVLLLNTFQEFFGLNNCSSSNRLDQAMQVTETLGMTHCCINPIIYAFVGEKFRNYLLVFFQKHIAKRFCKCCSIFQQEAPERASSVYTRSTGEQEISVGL

| Compound | IC50 [1] [nM] | CC50 at 48 h [2] [nM] | selectivity ratio (in vitro) | IC50 [3] [nM] |
| --- | --- | --- | --- | --- |
| Cc1csc([C@H](CCN2[C@@H]3CC[C@H]2C[C@H](n2c(C)nnc2C(C)C)C3)NC(=O)C2CCC(F)(F)CC2)c1 | 6.8 | – | – | – |
| Cc1nnc(C(C)C)n1[C@@H]1C[C@H]2CC[C@@H](C1)N2CC[C@H](NC(=O)C1CCC(F)CC1)c1cccs1 (some centres undefined) | 3 | – | – | – |
| Cc1nnc(C(C)C)n1[C@@H]1C[C@H]2CC[C@@H](C1)N2CC[C@H](NC(=O)C1CC(=O)N(C)C1)c1cccs1 (some centres undefined) | 5.2 | – | – | – |
| Cc1nnc(C(C)C)n1[C@@H]1C[C@H]2CC[C@@H](C1)N2CC[C@H](NC(=O)C1CCC(F)(F)CC1)c1csc2ccccc12 | 9.7 | 96100 | 119 | 810 |
| O=C(N[C@@H](CCN1[C@@H]2CC[C@H]1C[C@H](n1c(C3CC3)nnc1C(F)(F)F)C2)c1ccsc1)C1CCC(F)(F)CC1 | 2.9 | – | – | – |
| CC(C)c1nnc(C(F)(F)F)n1[C@@H]1C[C@H]2CC[C@@H](C1)N2CC[C@H](NC(=O)C1CCC(F)(F)CC1)c1cccs1 | 4.7 | – | – | – |
| CCc1nnc(C)n1[C@@H]1C[C@H]2CC[C@@H](C1)N2CC[C@H](NC(=O)C1CCC(F)(F)CC1)c1ccsc1 | 2.8 | – | – | – |
| Cc1nnc(C(C)C)n1[C@@H]1C[C@H]2CC[C@@H](C1)N2CC[C@H](NC(=O)C1CCC(F)(F)CC1)c1cscn1 | 27.1 | – | – | – |
| Cc1nnc(C(C)C)n1[C@@H]1C[C@H]2CC[C@@H](C1)N2CC[C@H](NC(=O)C1CCC(F)(F)CC1)c1ccc(F)s1 | 15.8 | > 200000 | > 385 | 520 |
| Cc1cscc1[C@H](CCN1[C@@H]2CC[C@H]1C[C@H](n1c(C)nnc1C(C)C)C2)NC(=O)C1CCC(F)(F)CC1 | 8.1 | – | – | – |
| Cc1nnc(C(C)C)n1[C@@H]1C[C@H]2CC[C@@H](C1)N2CC[C@H](NC(=O)C(C)(C)C(F)(F)F)c1cccs1 | 5.4 | – | – | – |
| Cc1nnc(C(C)C)n1[C@@H]1C[C@H]2CC[C@@H](C1)N2CC[C@H](NC(=O)C1CCC(=O)C1)c1cccs1 (some centres undefined) | 2.9 | – | – | – |
| Cc1ccc([C@H](CCN2[C@@H]3CC[C@H]2C[C@H](n2c(C)nnc2C(C)C)C3)NC(=O)C2CCCC2)s1 | 2.6 | – | – | – |
